In patent US7329650B2, “Peptides and peptide analogues designed from HFE protein and their uses in the treatment of iron overload diseases” (Bio-Rad Laboratories, Inc., priority 1998, dated 2008):
Ends that are not written are not given here.

Biological target: T1, transferrin receptor (TfR) (Homo sapiens, UniProt P02786)
T1 construct: HeLa cells were grown to 80-90% confluence at 37° C. at 5% CO2; endogenous in cells; host or cells: HeLa cells
Experiment: Measurement of cell-associated transferrin (labeled transferrin binding to HeLa cells, Scatchard analysis)
Conditions: for effect on TfR affinity for transferrin (in words): HeLa cells, peptide 50 μM or soluble HFE/β2m 100 nM alone

T1 sequence (P02786 whole entry): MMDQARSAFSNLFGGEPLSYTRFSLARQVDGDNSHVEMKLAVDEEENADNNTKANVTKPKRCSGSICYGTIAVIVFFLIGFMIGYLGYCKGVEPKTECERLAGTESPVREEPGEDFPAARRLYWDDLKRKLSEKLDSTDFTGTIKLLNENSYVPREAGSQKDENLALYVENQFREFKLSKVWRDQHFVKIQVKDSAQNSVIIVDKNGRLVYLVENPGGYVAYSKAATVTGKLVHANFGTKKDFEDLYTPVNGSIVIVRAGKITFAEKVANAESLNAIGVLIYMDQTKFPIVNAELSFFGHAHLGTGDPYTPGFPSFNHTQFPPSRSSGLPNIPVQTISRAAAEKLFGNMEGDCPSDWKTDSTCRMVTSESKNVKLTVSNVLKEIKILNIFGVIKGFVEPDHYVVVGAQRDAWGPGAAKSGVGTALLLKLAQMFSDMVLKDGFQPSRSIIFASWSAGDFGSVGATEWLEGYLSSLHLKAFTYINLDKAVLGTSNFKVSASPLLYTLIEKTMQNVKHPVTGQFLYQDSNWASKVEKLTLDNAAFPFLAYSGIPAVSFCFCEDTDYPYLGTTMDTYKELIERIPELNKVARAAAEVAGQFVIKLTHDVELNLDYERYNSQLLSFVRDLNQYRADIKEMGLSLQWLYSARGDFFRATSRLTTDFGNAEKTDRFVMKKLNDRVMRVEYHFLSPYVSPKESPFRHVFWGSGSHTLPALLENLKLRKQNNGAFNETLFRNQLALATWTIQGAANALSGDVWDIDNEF

Row | effect on TfR affinity for transferrin (in words) (FIG. 2 experiment) | effect on TfR affinity for transferrin (in words) (FIG. 3 experiment) | increase of KD of TfR for transferrin versus HeLa cells alone (FIG. 1 experiment, peptide 50 μM or soluble HFE/β2m 100 nM) | Sequence
1 | little effect | little effect | – | GWDHMFTVDFATIMENH [G-(17)-H (Ala)]
2 | – | significant increase in KD | approximately 2 fold | GWDHMFTVDFWTIMENH [G-(17)-H (Trp)]
